The nature of the data set: Solubility under substantially physiological conditions. The class given is physicochemical. Conditions: pH 5 to 7.

For `NS(=O)(=O)c1ccc(S(=O)(=O)Nc2cccc3c(Cl)c[nH]c23)cc1` [N-(3-chloro-7-indolyl)-1,4-benzenedisulfonamide], the Solubility result was “insoluble or slightly soluble”.

The record behind these values is patent publication US20060151899A1, “Process for producing drug ultramicroparticle and apparatus therefor” (priority 2004, published 2006).
